Assay results published in patent US9888689B2, “Compositions containing a pyripyropene insecticide and an adjuvant” (BASF SE, priority 2010, dated 2018).

Experiments:
[1] = tested on: larvae of Helicoverpa zea; details: cited from earlier work
[2] = tested on: Tenebrio molitor L; details: cited from earlier work
[3] = tested on: Plutella xylostella L larvae; details: cited from earlier work
[4] = Stability of crystalline hydrate forms of compound of formula I; type: physicochemical
Text: As pointed out above, a further aspect of the present invention relates to the hydrate B of the compound of formula I. Form B is a non-stoichiometric hydrate of the compound of formula I. The typical water content is in the range from 7.5 to 9 wt % and in particular about 8.5 wt %, i.e. 8.5±0.2 wt %. The water content can be determined by thermo-gravimetric analysis (TGA).

CC(=O)OC[C@@]1(C)[C@@H]2C[C@H](OC(C)=O)[C@@]3(C)Oc4cc(-c5cccnc5)oc(=O)c4[C@H](O)[C@@H]3[C@@]2(C)CC[C@@H]1OC(C)=O [Pyripyropene A]
insecticidal activity [1]: insecticidal activity
insecticidal activity [2]: insecticidal activity
insecticidal activity [3]: insecticidal activity

C[C@]1(COC(=O)C2CC2)[C@@H]2C[C@H](O)[C@@]3(C)Oc4cc(-c5cccnc5)oc(=O)c4[C@H](O)[C@@H]3[C@@]2(C)CC[C@@H]1OC(=O)C1CC1 [Form C]
stability of the hydrate form ([4]; ambient conditions): stable at ambient conditions over weeks and month

C[C@]1(COC(=O)C2CC2)[C@@H]2C[C@H](O)[C@@]3(C)Oc4cc(-c5cccnc5)oc(=O)c4[C@H](O)[C@@H]3[C@@]2(C)CC[C@@H]1OC(=O)C1CC1 [Form B]
conversion of the hydrate form ([4]; dried at elevated temperatures, e.g. >50 °C): slowly converts into amorphous material
stability of the hydrate form ([4]; room temperature, in contact with aqueous solvent or water or at high degrees of humidity, e.g. 90%): stable
conversion of the hydrate form ([4]; when the mother liquor is removed or humidity is reduced): slowly converts into form C
